ChEMBL document CHEMBL3045655, “Use of structure-based virtual screening in the investigation of novel human sialidase inhibitors” (Med Chem Res, 2010)
Activity calls are given as the source filed them. No cut-off for these calls is given here.

What was measured:
[1] = target: Sialidase-1 (Homo sapiens) (UniProt Q99519); test: Inhibition of Homo sapiens (human) NEU1 expressed in HEK293 cells using 4MU-NeuAc as substrate at 1 mM after 10 to 30 min by fluorometric analysis; format: cell-based
Sialidase-3 = target: T1, Sialidase-3 (Homo sapiens, UniProt Q9UQ49); test: Inhibition of Homo sapiens (human) NEU3 expressed in HEK293 cells using mixed ganglioside as substrate after 10 to 30 min by fluorometric analysis; format: cell-based
T1 sequence (Q9UQ49 whole entry): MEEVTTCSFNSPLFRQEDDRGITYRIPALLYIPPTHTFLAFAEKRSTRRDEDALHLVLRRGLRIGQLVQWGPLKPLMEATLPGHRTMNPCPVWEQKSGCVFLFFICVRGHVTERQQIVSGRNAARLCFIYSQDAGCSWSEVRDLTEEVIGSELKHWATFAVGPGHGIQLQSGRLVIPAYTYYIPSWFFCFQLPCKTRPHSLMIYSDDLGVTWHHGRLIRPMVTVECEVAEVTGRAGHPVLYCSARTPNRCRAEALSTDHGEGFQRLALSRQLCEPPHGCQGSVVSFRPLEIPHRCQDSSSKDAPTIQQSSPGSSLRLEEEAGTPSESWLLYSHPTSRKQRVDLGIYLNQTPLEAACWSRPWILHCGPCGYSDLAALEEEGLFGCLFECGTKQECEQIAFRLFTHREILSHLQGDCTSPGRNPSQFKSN

Sialidase-4 = target: T2, Sialidase-4 (Homo sapiens, UniProt Q8WWR8); test: Inhibition of Homo sapiens (human) NEU4 expressed in HEK293 cells using 4MU-NeuAc as substrate after 10 to 30 min by fluorometric analysis; format: cell-based
T2 sequence (Q8WWR8 whole entry): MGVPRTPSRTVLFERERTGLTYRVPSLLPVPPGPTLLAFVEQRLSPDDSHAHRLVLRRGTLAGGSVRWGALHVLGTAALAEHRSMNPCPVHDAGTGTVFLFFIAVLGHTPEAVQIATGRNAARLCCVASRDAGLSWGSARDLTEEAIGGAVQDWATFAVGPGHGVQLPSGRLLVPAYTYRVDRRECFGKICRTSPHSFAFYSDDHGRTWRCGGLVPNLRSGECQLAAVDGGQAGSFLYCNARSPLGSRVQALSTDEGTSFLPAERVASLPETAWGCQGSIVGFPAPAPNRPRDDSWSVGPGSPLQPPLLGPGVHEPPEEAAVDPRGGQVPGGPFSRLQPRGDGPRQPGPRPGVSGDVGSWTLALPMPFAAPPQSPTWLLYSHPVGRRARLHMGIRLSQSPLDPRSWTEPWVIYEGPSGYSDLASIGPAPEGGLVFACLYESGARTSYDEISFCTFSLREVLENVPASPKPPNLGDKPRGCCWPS

[2] = target: T3, Sialidase-3 (Homo sapiens) (UniProt Q9UQ49); test: Inhibition of Homo sapiens (human) NEU3 expressed in HEK293 cells using mixed ganglioside as substrate at 1 mM after 10 to 30 min by fluorometric analysis; format: cell-based
T3 sequence (whole entry): T1 sequence (Q9UQ49 whole entry)

[3] = target: Sialidase-2 (Homo sapiens) (UniProt Q9Y3R4); settings: HEK293, 1 mM
Description: Inhibition of Homo sapiens (human) NEU2 expressed in HEK293 cells using 4MU-NeuAc as substrate at 1 mM after 10 to 30 min by fluorometric analysis

[4] = target: T4, Sialidase-4 (Homo sapiens) (UniProt Q8WWR8); test: Inhibition of Homo sapiens (human) NEU4 expressed in HEK293 cells using 4MU-NeuAc as substrate at 1 mM after 10 to 30 min by fluorometric analysis
T4 sequence (whole entry): T2 sequence (Q8WWR8 whole entry)

Sequence of Sialidase-2 (Homo sapiens) (Q9Y3R4 whole entry): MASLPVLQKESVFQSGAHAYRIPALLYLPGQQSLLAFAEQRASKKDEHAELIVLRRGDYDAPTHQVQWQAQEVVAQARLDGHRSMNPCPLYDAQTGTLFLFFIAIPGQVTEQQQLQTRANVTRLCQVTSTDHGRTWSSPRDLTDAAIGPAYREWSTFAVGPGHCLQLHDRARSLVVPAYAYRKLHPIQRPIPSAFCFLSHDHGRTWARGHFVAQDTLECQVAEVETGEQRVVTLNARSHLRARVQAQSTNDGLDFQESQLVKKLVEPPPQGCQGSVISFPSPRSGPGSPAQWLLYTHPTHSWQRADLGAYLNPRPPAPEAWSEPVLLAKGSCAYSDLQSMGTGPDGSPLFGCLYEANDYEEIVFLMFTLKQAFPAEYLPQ

| SMILES | inhibition [1] | IC50 (Sialidase-3) [µM] | IC50 (Sialidase-4) [µM] | inhibition [2] [%] | inhibition [3] [%] | inhibition [4] [%] |
| --- | --- | --- | --- | --- | --- | --- |
| CC(=O)Nc1cc(F)c(C(=O)O)cc1NC(=O)c1ccc(-c2ccccc2)cc1 | inactive | > 5000 | > 5000 |  |  |  |
| CC(=O)N[C@H]1[C@H]([C@@H](O)[C@@H](O)CO)OC(C(=O)O)=C[C@@H]1O |  | 60 |  |  |  |  |
| O=C(O)c1oc(C(=O)O)c(OCc2ccccc2)c1OCc1ccccc1 | 7% | 920 | 670 | 56 | 40 | 56 |
